Data from PMC12332667, “Role of Structural Modifications in Peptidomimetic Compounds as Potential Antimicrobial Agents against Staphylococcus aureus and Streptococcus pyogenes: Balancing Bioavailability, Safety, and Antimicrobial Activity” (ACS Omega, 2025).
Converted amounts (≈) assume the structure as drawn. “And” between values parts separate entries of the source, which are not always exact repeats. Equal entries are not always repeated. Residues, ends and D or L forms follow the SMILES beside them.

Tests used:
S. aureus ATCC 43300 = assay: MIC/MBC broth microdilution, S. aureus; format: cell-based, Staphylococcus aureus; conditions: S. aureus
S. pyogenes ATCC 19615 = assay: MIC/MBC broth microdilution, S. pyogenes; format: cell-based, Streptococcus pyogenes; conditions: S. pyogenes
Summary of the method: (§1)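 BHI broth microdilution (NCCLS); ~10^5 CFU/mL; 37 °C, 18 h. MIC = lowest conc., no visible growth (≥90% vs untreated). MBC = ≤3 colonies, ≥99.9% kill. Water/DMSO/EtOH solvent controls; technical triplicate ×3 biological repeats.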

E. faecalis c.i. = assay: MIC/MBC broth microdilution, E. faecalis; format: cell-based, Enterococcus faecalis
Summary of the method: as §1

S. schleiferi c.i. = assay: MIC/MBC broth microdilution, S. schleiferi; format: cell-based, Staphylococcus schleiferi
Summary of the method: as §1

S. agalactiae ATCC 27956 = assay: MIC/MBC broth microdilution, S. agalactiae; format: cell-based, Streptococcus agalactiae; conditions: S. agalactiae
Summary of the method: as §1

S. mutans c.i. = assay: MIC/MBC broth microdilution, S. mutans; format: cell-based, Streptococcus mutans
Summary of the method: as §1

P. vulgaris ATCC 6896 = assay: MIC/MBC broth microdilution, P. vulgaris; format: cell-based, Proteus vulgaris
Summary of the method: as §1

[1] = tested on: K. pneumoniae ATCC 700603; assay: MIC/MBC broth microdilution, K. pneumoniae; format: cell-based
Summary of the method: as §1

P. aeruginosa ATCC 10145 = assay: MIC/MBC broth microdilution, P. aeruginosa; format: cell-based
Summary of the method: as §1

[2] = Hydrophobicity by reverse-phase chromatography; format: physicochemical; conditions: acetonitrile content in the mobile phase at the retention time
Excerpt: Reverse-phase chromatography was employed to assess the hydrophobicity characteristics of the peptidomimetics. Hydrophobicity was quantified by determining the acetonitrile content in the mobile phase at the retention time of a peptidyl derivative (Table S2). The least hydrophobic compound (40% acetonitrile) was A-198, which aligns with the calculations of hydrophobicity by SwissADME and pkCSM (Table ). Next in the hydrophobicity sequence were A-197, A-220, A-219, A-174, and A-221, eluting with 42.5-43.9% of acetonitrile. Then there were followed by […], and A-179, with the acetonitrile percentage of 44.8-49.8. The compounds A-176, A-20, A-152, A-134, and A-210 needed over 50% of acetonitrile to be eluted from the column.

[3] = tested on: immortalized human HaCaT keratinocytes; assay: XTT cell proliferation assay, keratinocytes; format: cell-based
Summary of the method: (§2)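 Proliferation was read as XTT absorbance at 490 nm after 4 h of reagent incubation, following 48 or 72 h of peptide exposure in serum-free HG-DMEM (37 °C, 5% CO2). The 72 h arm included a half-medium change with second peptide dose at 48 h. Significance by Mann–Whitney U, p ≤ 0.05.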

[4] = tested on: human dermal fibroblast cell line (46BR.1N); assay: XTT cell proliferation assay, fibroblasts; format: cell-based
Summary of the method: as §2

[5] = up to 150 μg/mL, A-193 and A-179 after 48 h
[6] = XTT, 48 and 72 h, 0.01–150 μg/mL

| SMILES | MBC (S. aureus ATCC 43300; H2O) [µg/mL] | MIC (S. aureus ATCC 43300; H2O) [µg/mL] | MIC (S. aureus ATCC 43300; water additive DMSO) [µg/mL] | MBC (S. aureus ATCC 43300; water additive EtOH) [µg/mL] | MIC (S. aureus ATCC 43300; water additive EtOH) [µg/mL] | MBC (S. pyogenes ATCC 19615; H2O) [µg/mL] | MBC (S. pyogenes ATCC 19615; water additive DMSO) [µg/mL] | MIC (S. pyogenes ATCC 19615; water additive DMSO) [µg/mL] | MBC (S. pyogenes ATCC 19615; water additive EtOH) [µg/mL] | MIC (E. faecalis c.i.; H2O) [µg/mL] | MIC (E. faecalis c.i.; water additive DMSO) [µg/mL] | MIC (S. schleiferi c.i.; H2O) [µg/mL] | MIC (S. schleiferi c.i.; water additive DMSO) [µg/mL] | MIC (S. schleiferi c.i.; water additive EtOH) [µg/mL] | MIC (S. agalactiae ATCC 27956; water additive EtOH) [µg/mL] | MIC (S. mutans c.i.; water additive DMSO) [µg/mL] | MIC (S. mutans c.i.; water additive EtOH) [µg/mL] | MIC (P. vulgaris ATCC 6896; H2O) [µg/mL] | MIC (P. vulgaris ATCC 6896; water additive DMSO) [µg/mL] | MIC (P. vulgaris ATCC 6896; water additive EtOH) [µg/mL] | further results |
| --- | --- | --- | --- | --- | --- | --- | --- | --- | --- | --- | --- | --- | --- | --- | --- | --- | --- | --- | --- | --- | --- |
| CC(C)[C@@H](CNC(=O)C(=Cc1ccccc1)c1ccccc1)NC(=O)[C@H](Cc1c[nH]cn1)NC(=O)[C@H](CCCCNC(=N)N)NC(=O)OCc1ccccc1 [Compound A-193] | 32 (≈ 42.7 µM) | 32 (≈ 42.7 µM) | 32 (≈ 42.7 µM) | 32 (≈ 42.7 µM) | 32 (≈ 42.7 µM) | 16 (≈ 21.3 µM) | 16 (≈ 21.3 µM) | 8 (≈ 10.7 µM) | 16 (≈ 21.3 µM) | 256 (≈ 341 µM) | 512 (≈ 683 µM) | 8 (≈ 10.7 µM) | 4 (≈ 5.33 µM) | 8 (≈ 10.7 µM) | 32 (≈ 42.7 µM) | 8 (≈ 10.7 µM) | 8 (≈ 10.7 µM) | > 512 | > 512 | > 512 | MBC (S. aureus ATCC 43300; water additive DMSO): 32 µg/mL (≈ 42.7 µM); MIC (S. pyogenes ATCC 19615; H2O): 8 µg/mL (≈ 10.7 µM); MIC (S. pyogenes ATCC 19615; water additive EtOH): 8 µg/mL (≈ 10.7 µM); MBC (E. faecalis c.i.; H2O): 512 µg/mL (≈ 683 µM); MBC (E. faecalis c.i.; water additive EtOH): 256 µg/mL (≈ 341 µM); MBC (S. schleiferi c.i.; H2O): 32 µg/mL (≈ 42.7 µM); MBC (S. schleiferi c.i.; water additive DMSO): 8 µg/mL (≈ 10.7 µM); MBC (S. schleiferi c.i.; water additive EtOH): 32 µg/mL (≈ 42.7 µM); MBC (S. mutans c.i.; water additive DMSO): 16 µg/mL (≈ 21.3 µM); MBC (S. mutans c.i.; water additive EtOH): 16 µg/mL (≈ 21.3 µM); MIC ([1]; H2O): > 512 µg/mL; MIC ([1]; water additive DMSO): > 512 µg/mL; MIC ([1]; water additive EtOH): > 512 µg/mL; MIC (P. aeruginosa ATCC 10145; H2O): > 512 µg/mL; MIC (P. aeruginosa ATCC 10145; water additive DMSO): 512 µg/mL (≈ 683 µM); MIC (P. aeruginosa ATCC 10145; water additive EtOH): > 512 µg/mL; % AcCN (acetonitrile required for elution from the column) [2]: 49.0% and 44.8–49.8%; antiproliferative effect (decrease vs control) [3, 5]: over 50%; antiproliferative effect (decrease vs control) [4, 5]: over 50% |
| CC(C)[C@H](NC(=O)[C@H](CCCNC(=N)N)NC(=O)[C@H](CCCNC(=N)N)NC(=O)OCc1ccccc1)C(=O)NCCc1ccccc1 [Compound A-221] (HELM PEPTIDE1{[O=C(OCc1ccccc1)[*:2]].R.R.V.[c1ccc(CCN[*:1])cc1]}$$$$V2.0) | 512 (≈ 768 µM) | 512 (≈ 768 µM) | > 512 | 512 (≈ 768 µM) | 256 (≈ 384 µM) | 256 (≈ 384 µM) | > 512 | 512 (≈ 768 µM) | 256 (≈ 384 µM) | > 512 | > 512 | > 512 | > 512 | > 512 | 256 (≈ 384 µM) | > 512 | > 512 | > 512 | > 512 | > 512 | MIC (E. faecalis c.i.; water additive EtOH): > 512 µg/mL; MBC (S. agalactiae ATCC 27956; H2O): 512 µg/mL (≈ 768 µM); MIC (S. agalactiae ATCC 27956; H2O): 256 µg/mL (≈ 384 µM); MBC (S. agalactiae ATCC 27956; water additive DMSO): 512 µg/mL (≈ 768 µM); MIC (S. agalactiae ATCC 27956; water additive DMSO): 256 µg/mL (≈ 384 µM); MBC (S. agalactiae ATCC 27956; water additive EtOH): 512 µg/mL (≈ 768 µM); MIC (S. mutans c.i.; H2O): > 512 µg/mL; MIC ([1]; H2O): > 512 µg/mL; MIC ([1]; water additive DMSO): > 512 µg/mL; MIC ([1]; water additive EtOH): > 512 µg/mL; MBC (P. aeruginosa ATCC 10145; H2O): 256 µg/mL (≈ 384 µM); MIC (P. aeruginosa ATCC 10145; water additive DMSO): 32 µg/mL (≈ 48 µM); % AcCN (acetonitrile required for elution from the column) [2]: 43.9%; effect on proliferation, in words [3, 6]: pro-proliferating effect at lower concentrations followed by an antiproliferative effect at higher concentrations; effect on proliferation, in words [4, 6]: pro-proliferating effect at lower concentrations followed by an antiproliferative effect at higher concentrations |
